In patent publication US20070232601A1, “Vla-4 Inhibitor” (priority 2004, published 2007):
pKi: −log10 of the molar value.

Target: T1, hα4 and β1 integrins (VLA-4) (Homo sapiens, UniProt P05556+P13612)
T1 construct: expressed in transfected cells; host or cells: CHO cells
Assay: In vitro evaluation: inhibition of binding of CHO cells expressing hα4 and β1 integrins to Eu3+-hVCAM-1 D1D7-IgG
Settings: ligand Eu3+-hVCAM-1 D1D7-IgG 2 nM, Ki calculated from IC50
Experimental: CHO cells which were forced to be expressed by transduction of hα4 and β1 integrins are seeded (3×10^4 cells/100 μl/well) on a Costar 3599 plate, and cultured for 2 days. A medium is washed with a buffer A* two times, and Eu^3+-hVCAM-1 D1D7-IgG which was diluted with an assay buffer A** to 2 nM is added at 50 μl/well. A test substance which was diluted with 2% DMSO-assay buffer (in the presence or the absence of 6% human serum albumin) is added at 50 μl/well (A solution which was separately diluted is added to a well in which Scatchard analysis is performed), this is stirred with a plate mixer for 5 minutes, and allowed to stand at room temperature for 1 hour. Thereafter, this is washed with a buffer A four times, a potentiating reagent (manufactured by DELFIA) is added at 100 μl/well, this is shaken for 5 minutes using a plate mixer, and a fluorescence intensity is measured with a time-resolved fluorometer (DELFIA Wallac). IC50 (concentration at which binding of CHO cell and Eu^3+-hVCAM-1 D1D7-IgG is inhibited by 50%) of a test substance is obtained from an integration rate obtained from a calculation equation: [(FT−FNS)−(FI−FNS)]/[(FT−FNS)]×100, wherein FT indicates a fluorescence intensity of a well not containing a test substance, FNS indicates a fluorescence intensity of a well not containing a test substance and hVCAM-1 D1D7-IgG, and FI indicates a fluorescence intensity containing a test substance. A Kd value showing strength of binding and Bmax (maximum binding amount) were presumed in a range of 0.06 to 20 nM according to the Scachard analysis method. [formula]
A Ki value was calculated according to the above equation ([L] is ligand concentration)
[* buffer A: 25 mM HEPES (pH 7.5), 150 mM NaCl, 1 mM Ca^2+, 1 mM Mg^2+, 4 mM Mn^2+; ** assay buffer: 25 mM HEPES (pH 7.5), 150 mM NaCl, 1 mM Ca^2+, 1 mM Mg^2+, 4 mM Mn^2+, 0.1% BSA, 20 μM DTPA, with/without 6% ALBUMIN, HUMAN SERUM (C/NA-1653, SIGMA)]

T1 sequence (P13612 34-1032): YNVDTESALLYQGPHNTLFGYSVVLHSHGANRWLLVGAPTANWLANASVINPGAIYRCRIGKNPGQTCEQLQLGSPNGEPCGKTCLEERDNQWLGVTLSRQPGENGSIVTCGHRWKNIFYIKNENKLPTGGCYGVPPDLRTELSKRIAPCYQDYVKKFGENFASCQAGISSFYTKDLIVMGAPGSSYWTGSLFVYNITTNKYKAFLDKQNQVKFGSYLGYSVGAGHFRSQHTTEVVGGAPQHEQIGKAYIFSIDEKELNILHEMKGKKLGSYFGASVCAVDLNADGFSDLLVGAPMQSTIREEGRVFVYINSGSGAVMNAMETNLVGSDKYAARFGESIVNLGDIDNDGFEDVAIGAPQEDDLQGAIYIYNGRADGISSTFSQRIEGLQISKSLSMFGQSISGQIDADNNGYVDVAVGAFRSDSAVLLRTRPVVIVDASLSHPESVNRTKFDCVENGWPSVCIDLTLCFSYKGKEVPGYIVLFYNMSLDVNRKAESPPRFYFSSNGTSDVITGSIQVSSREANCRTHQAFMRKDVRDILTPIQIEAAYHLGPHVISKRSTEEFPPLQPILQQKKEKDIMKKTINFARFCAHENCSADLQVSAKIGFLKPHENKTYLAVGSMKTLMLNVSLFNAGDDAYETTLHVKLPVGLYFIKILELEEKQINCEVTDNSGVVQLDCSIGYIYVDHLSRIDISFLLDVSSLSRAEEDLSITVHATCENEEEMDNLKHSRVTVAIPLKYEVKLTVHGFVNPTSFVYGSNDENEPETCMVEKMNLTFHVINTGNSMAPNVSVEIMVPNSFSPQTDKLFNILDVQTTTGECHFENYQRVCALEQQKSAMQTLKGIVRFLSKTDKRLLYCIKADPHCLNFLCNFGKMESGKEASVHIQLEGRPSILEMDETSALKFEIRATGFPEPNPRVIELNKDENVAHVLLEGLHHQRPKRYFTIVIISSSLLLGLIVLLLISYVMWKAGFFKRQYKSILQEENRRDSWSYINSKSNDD
T1 sequence (P05556 21-798): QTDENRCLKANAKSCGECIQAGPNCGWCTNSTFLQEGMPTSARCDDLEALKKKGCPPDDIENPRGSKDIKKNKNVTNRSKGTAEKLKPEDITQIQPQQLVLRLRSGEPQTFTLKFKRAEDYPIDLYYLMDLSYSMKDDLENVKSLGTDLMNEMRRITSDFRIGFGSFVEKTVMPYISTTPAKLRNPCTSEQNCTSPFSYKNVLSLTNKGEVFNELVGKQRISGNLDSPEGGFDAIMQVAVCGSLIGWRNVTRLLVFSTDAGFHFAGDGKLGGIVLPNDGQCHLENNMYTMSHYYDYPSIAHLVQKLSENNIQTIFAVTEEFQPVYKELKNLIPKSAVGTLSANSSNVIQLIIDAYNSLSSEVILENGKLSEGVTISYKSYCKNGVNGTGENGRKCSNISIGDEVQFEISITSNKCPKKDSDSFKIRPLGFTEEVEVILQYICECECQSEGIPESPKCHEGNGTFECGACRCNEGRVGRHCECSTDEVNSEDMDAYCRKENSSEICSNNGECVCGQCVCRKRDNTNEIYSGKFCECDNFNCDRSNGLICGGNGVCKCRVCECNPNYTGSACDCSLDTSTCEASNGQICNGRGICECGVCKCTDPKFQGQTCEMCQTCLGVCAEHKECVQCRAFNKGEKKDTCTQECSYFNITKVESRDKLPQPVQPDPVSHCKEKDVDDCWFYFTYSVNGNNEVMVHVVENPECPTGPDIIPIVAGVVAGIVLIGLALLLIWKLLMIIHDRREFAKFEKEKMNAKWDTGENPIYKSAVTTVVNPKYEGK

Row | SMILES | pKi
1 | COC[C@@H]1CC[C@@H](c2ncc(CCC(=O)O)s2)N1C(=O)Cc1cc(Cl)c(NC(=O)c2csc3ccccc23)cc1F [Example 55, 3-[2-[1-[4-[(3-Benzo[b]thienylcarbonyl)amino]-5-chloro-2-fluorophenylacetyl]-(5S)-methoxymethyl-(2S)-pyrrolidinyl]-5-thiazolyl]propionic acid] | 7.77
2 | COC[C@@H]1CC[C@@H](c2ncc(CCC(=O)O)s2)N1C(=O)Cc1cc(Cl)c(NC(=O)c2coc3ccccc23)cc1F [Example 56, 3-[2-[1-[4-[(1-Benzofuran-3-ylcarbonyl)amino]-5-chloro-2-fluorophenylacetyl]-(5S)-methoxymethyl-(2S)-pyrrolidinyl]-5-thiazolyl]propionic acid] | 7.18
3 | Cn1cc(C(=O)Nc2cc(F)c(CC(=O)N3[C@H](c4ncc(CCC(=O)O)s4)C[C@@H]4CCCC[C@@H]43)cc2Cl)c2ccccc21 [Example 59, 3-[2-[1-[5-Chloro-2-fluoro-4-(1-methyl-3-indolylcarbonyl)aminophenylacetyl]-(2S)-octahydroindolyl]-5-thiazolyl]propionic acid] | 7.77
4 | O=C(O)CCc1cnc([C@@H]2C[C@@H]3CCCC[C@@H]3N2C(=O)Cc2cc(Cl)c(NC(=O)c3csc4ccccc34)cc2F)s1 [Example 61, 3-[2-[1-[4-[(3-Benzo[b]thienylcarbonyl)amino]-5-chloro-2-fluorophenylacetyl]-(2S)-octahydroindolyl]-5-thiazolyl]propionic acid] | 8.22
5 | Cc1ccc(F)cc1Nc1nc2ccc(CC(=O)N3[C@H](c4ncc(CCC(=O)O)s4)C[C@@H]4CCCC[C@@H]43)c(F)c2o1 [Example 62, 3-[2-[1-[7-Fluoro-2-(5-fluoro-2-methylphenyl)amino-6-benzoxazolylacetyl]-(2S)-octahydroindolyl]-5-thiazolyl]propionic acid] | 8.64
6 | CCO[C@H]1CCN(C(=O)Cc2cc(Cl)c(NC(=O)c3cn(C)c4ccccc34)cc2F)[C@@H]1c1ncc(CCC(=O)O)s1 [Example 91, 3-[2-[1-[[5-Chloro-2-fluoro-4-(1-methyl-3-indolylcarbonylamino)phenyl]acetyl]-(3S)-ethoxy-(2S)-pyrrolidinyl]-5-thiazolyl]propionic acid] | 8.39
7 | CCO[C@H]1CCN(C(=O)Cc2cc(Cl)c(NC(=O)c3cn(C)c4ccccc34)cc2Cl)[C@@H]1c1ncc(CCC(=O)O)s1 [Example 92, 3-[2-[1-[[2,5-Dichloro-4-(1-methyl-3-indolylcarbonylamino)phenyl]acetyl]-(3S)-ethoxy-(2S)-pyrrolidinyl]-5-thiazolyl]propionic acid] | 8.00
8 | CCO[C@H]1CCN(C(=O)Cc2cc(Cl)c(NC(=O)c3csc4ccccc34)cc2F)[C@@H]1c1ncc(CCC(=O)O)s1 [Example 93] | 8.54
9 | CCO[C@H]1CCN(C(=O)Cc2cc(Cl)c(NC(=O)c3csc4ccccc34)cc2Cl)[C@@H]1c1ncc(CCC(=O)O)s1 [Example 94] | 8.21
10 | CCO[C@H]1CCN(C(=O)Cc2cc(Cl)c(NC(=O)c3coc4ccccc34)cc2F)[C@@H]1c1ncc(CCC(=O)O)s1 [Example 95] | 8.38
11 | CCO[C@H]1CCN(C(=O)Cc2cc(Cl)c(NC(=O)c3coc4ccccc34)cc2Cl)[C@@H]1c1ncc(CCC(=O)O)s1 [Example 96] | 8.19
12 | CCO[C@H]1CCN(C(=O)Cc2cc(Cl)c(NC(=O)c3cn(C)c4ccccc34)cc2F)[C@@H]1c1ncc(CCC(=O)O)o1 [Example 97, 3-[2-[1-[[5-Chloro-2-fluoro-4-(1-methyl-3-indolylcarbonylamino)phenyl]acetyl]-(3S)-ethoxy-(2S)-pyrrolidinyl]-5-oxazolyl]propionic acid] | 8.04
13 | CCO[C@H]1CCN(C(=O)Cc2cc(Cl)c(NC(=O)c3cn(C)c4ccccc34)cc2Cl)[C@@H]1c1ncc(CCC(=O)O)o1 [Example 98, 3-[2-[1-[[2,5-Dichloro-4-(1-methyl-3-indolylcarbonylamino)phenyl]acetyl]-(3S)-ethoxy-(2S)-pyrrolidinyl]-5-oxazolyl]propionic acid] | 7.96
14 | CCO[C@H]1CCN(C(=O)Cc2cc(Cl)c(NC(=O)c3csc4ccccc34)cc2Cl)[C@@H]1c1ncc(CCC(=O)O)o1 [Example 100] | 8.11
15 | CCO[C@H]1CCN(C(=O)Cc2cc(Cl)c(NC(=O)c3coc4ccccc34)cc2F)[C@@H]1c1ncc(CCC(=O)O)o1 [Example 101] | 8.01
16 | CCO[C@H]1CCN(C(=O)Cc2cc(Cl)c(NC(=O)c3coc4ccccc34)cc2Cl)[C@@H]1c1ncc(CCC(=O)O)o1 [Example 102] | 7.77
17 | CCO[C@H]1CCN(C(=O)Cc2ccc3nc(Nc4cc(F)ccc4C)oc3c2F)[C@@H]1c1ncc(CCC(=O)O)o1 [Example 103, 3-[2-[1-[[7-Fluoro-2-(5-fluoro-2-methylphenyl)amino-6-benzoxazolyl]acetyl]-(3S)-ethoxy-(2S)-pyrrolidinyl]-5-oxazolyl]propionic acid] | 8.59
18 | CCO[C@H]1CCN(C(=O)Cc2ccc3nc(Nc4ccccc4C)oc3c2)[C@@H]1c1ncc(CCC(=O)O)o1 [Example 104, 3-[2-[1-[[2-(2-Methylphenyl)amino-6-benzoxazolyl]acetyl]-(3S)-ethoxy-(2S)-pyrrolidinyl]-5-oxazolyl]propionic acid] | 8.35
19 | CCO[C@H]1CCN(C(=O)Cc2ccc3nc(Nc4cc(F)ccc4OC)oc3c2F)[C@@H]1c1ncc(CCC(=O)O)o1 [Example 105, 3-[2-[1-[[7-Fluoro-2-(5-fluoro-2-methoxyphenyl)amino-6-benzoxazolyl]acetyl]-(3S)-ethoxy-(2S)-pyrrolidinyl]-5-oxazolyl]propionic acid] | 7.96
20 | CCO[C@H]1CCN(C(=O)Cc2ccc3nc(Nc4ccccc4OC)oc3c2)[C@@H]1c1ncc(CCC(=O)O)o1 [Example 106, 3-[2-[1-[[2-(2-Methoxyphenyl)amino-6-benzoxazolyl]acetyl]-(3S)-ethoxy-(2S)-pyrrolidinyl]-5-oxazolyl]propionic acid] | 7.68
21 | CO[C@H]1C[C@@H](c2ncc(CCC(=O)O)s2)N(C(=O)Cc2ccc(Nc3nc4c(Cl)cccc4s3)c(Cl)c2)C1 [Example 114, 3-[2-[1-[4-(4-Chloro-2-benzothiazolyl)amino-3-chlorophenyl]acetyl-(4S)-methoxy-(2S)-pyrrolidinyl]-5-thiazolyl]propionic acid] | 8.16
22 | CCO[C@H]1CCN(C(=O)Cc2cc(Cl)c(Nc3nc4ccccc4s3)cc2Cl)[C@@H]1c1ncc(CCC(=O)O)s1 [Example 115, 3-[2-[1-[4-(2-Benzothiazolyl)amino-2,5-dichlorophenyl]acetyl-(3S)-ethoxy-(2S)-pyrrolidinyl]-5-thiazolyl]propionic acid] | 8.08
23 | O=C(O)CCc1cnc([C@@H]2[C@@H](O)CCN2C(=O)Cc2ccc(Nc3nc4ccccc4o3)c(Cl)c2)s1 [Example 116, 3-[2-[1-[4-(2-Benzoxazolyl)amino-3-chlorophenyl]acetyl-(3S)-hydroxy-(2S)-pyrrolidinyl]-5-thiazolyl]propionic acid] | 7.40
24 | O=C(O)CCc1cnc([C@@H]2[C@@H](O)CCN2C(=O)Cc2cc(Cl)c(Nc3nc4ccccc4o3)cc2F)s1 [Example 117, 3-[2-[1-[4-(2-Benzoxazolyl)amino-5-chloro-2-fluorophenyl]acetyl-(3S)-hydroxy-(2S)-pyrrolidinyl]-5-thiazolyl]propionic acid] | 7.46
25 | O=C(O)CCc1cnc([C@@H]2[C@@H](O)CCN2C(=O)Cc2cc(Cl)c(Nc3nc4ccccc4o3)cc2Cl)s1 [Example 118, 3-[2-[1-[4-(2-Benzoxazolyl)amino-2,5-dichlorophenyl]acetyl-(3S)-hydroxy-(2S)-pyrrolidinyl]-5-thiazolyl]propionic acid] | 7.44
26 | O=C(O)CCc1cnc([C@@H]2[C@@H](O)CCN2C(=O)Cc2cc(Cl)c(NC(=O)c3csc4ccccc34)cc2F)s1 [Example 122] | 8.80
27 | O=C(O)CCc1cnc([C@@H]2[C@@H](O)CCN2C(=O)Cc2cc(Cl)c(NC(=O)c3csc4ccccc34)cc2Cl)s1 [Example 123] | 8.46
28 | CO[C@@H]1C[C@@H](c2ncc(CCC(=O)O)s2)N(C(=O)Cc2cc(Cl)c(Nc3nc4ccccc4o3)cc2Cl)C1 [Example 124, 3-[2-[1-[4-(2-Benzoxazolyl)amino-2,5-dichlorophenyl]acetyl-(4R)-methoxy-(2S)-pyrrolidinyl]-5-thiazolyl]propionic acid] | 7.12
29 | CO[C@@H]1C[C@@H](c2ncc(CCC(=O)O)s2)N(C(=O)Cc2cc(Cl)c(Nc3nc4ccccc4s3)cc2Cl)C1 [Example 125] | 7.96
30 | O=C(O)CCn1nnc([C@@H]2CCCN2C(=O)Cc2cc(Cl)c(NC(=O)c3csc4ccccc34)cc2F)n1 [Example 126, 3-[5-[1-[[4-[(3-Benzo[b]thiophenylcarbonyl)amino]-5-chloro-2-fluorophenyl]acetyl]-(2S)-pyrrolidinyl]-2H-tetrazol-2-yl]propionic acid] | 7.72
